The values that follow come from patent US20090117155A1, “TREATMENT OF HIV-1 BY MODULATION OF VPR ACTIVATION OF THE M-CSF PROMOTER” (priority 2006, published 2009).

Assay [1] relates to M-CSF promoter. Nature of the assay: M-CSF promoter luciferase reporter (pGL3-M-CSF) in primary human macrophages. The class given is cell-based. The method, then: (§1) Peripheral blood mononuclear cells (PBMC) were isolated from heparinized whole blood or buffy coats acquired from healthy seronegative blood donors by density-gradient centrifugation (Histopaque-1017, Sigma-Aldrich, St. Louis, Mo.). CD14+ monocytes were isolated from prepared PBMC using the Miltenyi AutoMACS system (Miltenyi Biotec, Auburn, Calif.). Briefly, cells were incubated with anti-CD14 monoclonal antibody-coated microbeads (Miltenyi Biotec, Auburn, Calif.) at 4° C. for 15 minutes and run on an AutoMacs separator. […] Recovered CD14+ monocytes were used immediately in transfection experiments. For macrophage preparation, PBMC were incubated in RPMI 1640 (Invitrogen, Carlsbad, Calif.) containing 20% FBS, 10% human AB serum, 2 mM L-glutamine and penicillin (50 U/ml)/streptomycin (50 μg/ml) overnight at 37° C. Adherent cells were washed 3 times with phosphate-buffered saline (PBS), removed with cold PBS 0.02% EDTA and differentiated into macrophages for 6 days in DMEM supplemented with 10% human AB serum and 2 mM L-glutamine. THP1 cells were cultivated in RPMI 1640 supplemented with 10% FBS, 2 mM L-glutamine and penicillin (50 U/ml)/streptomycin (50 μg/ml) (=complete medium).
The M-CSF promoter (−1310/+48 bp) was amplified from human genomic DNA by PCR with the primers 5′-[…]-3′ (SEQ ID NO: 20) and 5′-[…] […]-3′ (SEQ ID NO: 21). […] Amplification consisted of 30 cycles of 30 s at 94° C., 30 s at 58° C., and 6 min at 72° C. All the constructs were verified by sequencing (Nucleic Acid Facility, Jefferson University, PA USA).
(§2) THP1 cells (2×106/transfection) were transiently transfected with Effecten reagent (Qiagen, Santa Clara, Calif.) using 1 μg of plasmid DNA, 8 μl enhancer and 10 μl effectene. Cells were incubated in complete medium for 24 hours in 6-well plates. Human primary CD 14+ cells were transfected using the Human Monocyte Nucleofector Kit (Amaxa, Gaithersburg, Md.) according to the manufacturer's instructions. Briefly, 5×10^6 CD 14+ cells were resuspended in 100 μl of nucleofector solution (Amaxa) with 5 μg of DNA and electroporated using the program Y-001. Cells were then transferred in 1.5 ml of Human Monocyte Nucleofector medium (Amaxa) in 24-well plates for 24 hours. Human macrophages were transfected using the Human Macrophage Nucleofector Kit (Amaxa) according to the manufacturer's specifications. In brief, 0.5×10^6 macrophages were resuspended in 100 μl of nucleofector solution (Amaxa) with 5 μg of DNA and electroporated using the program Y-010. Cells were incubated for 24 hours in advanced RPMI (Invitrogen, Carlsbad, Calif.) supplemented with 10% FBS and 2 mM L-glutamine in 12-well plates. One day after transfection, cells were harvested by centrifugation and cell pellets were resuspended in 200 μl of lysis buffer (Promega). Twenty microliters of cell lysate was assayed for luciferase activity using the Luciferase Assay System (Promega). The protein concentration was determined with the BCA Protein Assay Reagent (Pierce, Rockford, Ill.) and the luciferase activity was expressed in Relative Light Unit (RLU) per μg of protein.
(Reporter assays use an easily measured gene product as a stand-in for the process of interest.)

The subject of assay [2] is M-CSF. Nature of the assay: M-CSF production in culture supernatants of primary human macrophages (ELISA). Type of assay: cell-based. How it is done: as §1, §2
M-CSF and IL-6 production in cell culture supernatants were assessed by ELISA according to the manufacturer's instructions (R&D systems, Minneapolis, Minn.).
On the technique in general: An ELISA detects its analyte on a solid surface through an enzyme-linked reagent.

For assay [3], the system named is mammary tumorigenesis. Particulars: Bcra1/p53-deficient mice, Poole et al., 2006; cited from earlier work.
Assay [4] relates to HIV-1. Particulars: Schafer et al., 2006; cited from earlier work.
Assay [5] deals with HIV-1 LTR. Particulars: Schafer et al., 2006; cited from earlier work.
Setting [6] is: concentrations as high as 100 μM, in the absence of Vpr.
The mark [7] stands for this setting: primary macrophages co-transfected with pGL3-M-CSF and Vpr vector.

With `CC(=O)[C@H]1CC[C@H]2[C@@H]3CCC4=CC(=O)CC[C@]4(C)[C@H]3CC[C@]12C` [progesterone], the “effect on M-CSF promoter activity” value in assay [1] (primary macrophages transfected with pGL3-M-CSF, different concentrations, no Vpr) is given as “no increase”.

In the case of `CC#C[C@]1(O)CC[C@H]2[C@@H]3CCC4=CC(=O)CCC4=C3[C@@H](c3ccc(N(C)C)cc3)C[C@@]21C` [RU486, mifepristone], the “inhibition of the Vpr effect on M-CSF production” value in assay [2] (50 μM, primary macrophages co-transfected with pGL3-M-CSF and Vpr vector) is reported as “total inhibition”. Besides, the inhibition (in general, the percentage by which the read-out fell short of the control) at 10 µM in assay [2] (Homo sapiens, Primary macrophage, 10 μM, primary macrophages co-transfected with pGL3-M-CSF and Vpr vector, read-out: inhibition of Vpr induced M-CSF production) was over 50%. Moreover, in assay [2] (setting [6]), the “effect on basal level M-CSF production” value is recorded as “did not completely inhibit”. Also, the “concentration required for inhibition of M-CSF induction by Vpr” value in assay [2] (primary human macrophages) was “approximately 10 μM”. The “effect on Vpr-dependent M-CSF production” value in assay [2] (setting [7]) was “dose-dependent decrease”. In addition, the mammary tumorigenesis result in assay [3] is listed as “prevent mammary tumorigenesis”. In addition, the “viral replication in PBMCs” value in assay [4] is reported as “inhibits”. In addition, in assay [5], the “Vpr-induced transactivation of the HIV-1 LTR” value is “inhibits”. The inhibition at 20 µM in assay [1] (Homo sapiens, Primary macrophage, 20 μM, primary macrophages co-transfected with pGL3-M-CSF and Vpr vector, read-out: inhibition of Vpr-dependent M-CSF promoter activity) was over 50%. Besides, the “effect on basal level of M-CSF promoter activity” value in assay [1] (setting [6]) is “did not completely inhibit”. The “effect on Vpr-dependent M-CSF promoter activity” value in assay [1] (setting [7]) is given as “dose-dependent decrease”.

Turning to “IL-6: cytokine IL-6 used to treat primary macrophages for 24 hours”, the M-CSF transcription in assay [1] (primary macrophages treated for 24 hours) was 50.1±0.4 RLU/μg of protein.
